{"source": "patent US6309872A", "about": "“Polypeptides having glucoamylase activity and nucleic acids encoding same” (Novozymes Biotech, Inc, priority 2000, dated 2001)", "key": {"[1]": {"tested_on": "Aspergillus spp K-27 glucoamylase", "details": "Abe et al., 1990, cited from earlier work"}, "[2]": {"biological_target": "Aspergillus awamori glucoamylase (Aspergillus awamori, UniProt P69327)", "sequence (P69327 25-640)": "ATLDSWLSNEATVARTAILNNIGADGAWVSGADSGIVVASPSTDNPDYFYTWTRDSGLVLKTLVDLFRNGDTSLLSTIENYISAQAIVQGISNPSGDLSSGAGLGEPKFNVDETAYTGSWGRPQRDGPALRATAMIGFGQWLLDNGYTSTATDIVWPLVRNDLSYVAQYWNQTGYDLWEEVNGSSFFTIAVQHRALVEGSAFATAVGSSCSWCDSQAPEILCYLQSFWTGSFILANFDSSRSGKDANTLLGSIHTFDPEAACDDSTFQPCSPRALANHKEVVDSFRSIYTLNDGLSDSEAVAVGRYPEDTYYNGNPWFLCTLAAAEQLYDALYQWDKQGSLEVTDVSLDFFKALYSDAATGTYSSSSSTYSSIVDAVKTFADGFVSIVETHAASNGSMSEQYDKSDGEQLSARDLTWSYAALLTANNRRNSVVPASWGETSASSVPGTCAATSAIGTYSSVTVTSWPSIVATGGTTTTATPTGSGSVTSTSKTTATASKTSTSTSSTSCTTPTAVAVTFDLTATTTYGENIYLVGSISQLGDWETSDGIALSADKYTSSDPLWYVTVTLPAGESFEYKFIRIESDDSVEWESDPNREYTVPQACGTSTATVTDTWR", "details": "Sierks and Svensson, 1993, cited from earlier work"}, "[3]": {"tested_on": "Trichoderma reesei glucoamylase", "details": "Fagerstrom and Kalkkinen, 1995, cited from earlier work"}, "[4]": {"biological_target": "T1, Thielavia terrestris ATCC 20627 glucoamylase, wild type, recombinant (expressed in Aspergillus oryzae), SEQ ID NO:2 (Thermothielavioides terrestris, UniProt G2QUZ8)", "T1 construct": "N-terminus identical to native enzyme", "T1 sequence (G2QUZ8 20-638)": "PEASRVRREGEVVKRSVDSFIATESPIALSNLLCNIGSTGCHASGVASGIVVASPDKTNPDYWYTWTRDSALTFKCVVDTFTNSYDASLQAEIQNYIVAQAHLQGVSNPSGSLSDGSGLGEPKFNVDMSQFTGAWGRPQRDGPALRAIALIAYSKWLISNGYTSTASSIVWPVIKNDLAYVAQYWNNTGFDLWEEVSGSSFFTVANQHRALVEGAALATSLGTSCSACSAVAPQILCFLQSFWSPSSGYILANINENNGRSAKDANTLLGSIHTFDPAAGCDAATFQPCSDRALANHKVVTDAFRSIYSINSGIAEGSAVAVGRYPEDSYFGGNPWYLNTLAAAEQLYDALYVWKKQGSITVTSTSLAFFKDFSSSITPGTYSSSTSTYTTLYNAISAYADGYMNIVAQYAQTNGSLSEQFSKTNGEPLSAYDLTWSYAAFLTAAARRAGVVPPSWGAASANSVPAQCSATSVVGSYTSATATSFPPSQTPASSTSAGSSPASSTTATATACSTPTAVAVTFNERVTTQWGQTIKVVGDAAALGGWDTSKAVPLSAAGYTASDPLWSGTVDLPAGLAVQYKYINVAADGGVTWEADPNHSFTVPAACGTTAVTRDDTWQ", "assay": "Catalytic constants of recombinant Thielavia terrestris glucoamylase, maltotriose hydrolysis (glucose oxidase assay)", "format": "biochemical", "method": "The glucose-releasing activity of glucoamylase (on maltooligosaccharide) was measured using a glucose oxidase assay kit (Sigma Chemical Co., St. Louis, Mo.) according to the manufacturer's instructions. […] To obtain the correct glucoamylase activity, glucoamylase samples were subjected to ultrafiltration and the resulting retentate (glucoamylase enriched) and filtrate (containing no glucoamylase) were assayed by the glucose oxidase kit. The background substrate oxidation was then subtracted from the data obtained for the glucoamylase samples. Another glucoamylase activity assay comprised of glucoamylase hydrolysis on maltose and glucose detection by a Glucose GOD-Perid kit (Boehringer Mannheim, Indianapolis, Ind.) according to the manufacturer's instructions. In this assay, 900 µl of 50 mM sodium acetate, pH 4.3, containing 1% maltose, pre-incubated for 5 minutes at 37° C., was mixed with 20 μl of glucoamylase solution in 50 mM sodium acetate pH 4.3. After a 10 minute incubation, 80 μl of 1 M NaOH was added to inactivate glucoamylase and the mixture was chilled on ice to prevent the non-enzymatic, basic hydrolysis of maltose. A 20 μl volume of the solution was then mixed with 200 μl of GOD-Perid solution. After a 30 minute incubation at room temperature, the absorbance at 650 nm was measured. The Prism program (from GraphPad, San Diego, Calif.) was used to calculate Km and Vmax by non-linear regression. The parameter kcat (mole glucose produced per mole glucoamylase per min) was calculated by kcat ={(Vmax +1.01)/0.30}/[enzyme], where the units were 0.001 Abs /minute for Vmax and μM for [enzyme]. The 124 mM^-1 cm^-1 value, calculated from the amount of tyrosine, phenylalanine, and cysteine as deduced from the DNA sequence, was used for the extinction coefficient of Thielavia terrestris glucoamylase at 280 nm.\nThen 50 μl of Sigma's GO glucose oxidase assay reagent and 25 μl of H2 O were added and the absorption change was monitored at 490 nm.\nThe temperature-activity profile was measured in quadruplicate at 4, 22, 30, 37, 50, 60, 70, and 80° C. […] After 30 minutes, 5 μl Thielavia terrestris glucoamylase stock (0.11 mg/ml) was added and the solution was kept at the same temperature. After 20 minutes, the solutions were chilled (in ice-water) and briefly centrifuged (in 0.7-ml microcentrifuge tubes). Then 25 μl of these solutions were subjected to the glucoamylase assay by mixing with 50 μl of glucose oxidase reagent and 25 μl of H2 O as described above."}}, "data": [{"compound": "OC[C@H]1O[C@H](O[C@H]2[C@H](O)[C@@H](O)[C@@H](O[C@H]3[C@H](O)[C@@H](O)C(O)O[C@@H]3CO)O[C@@H]2CO)[C@H](O)[C@@H](O)[C@@H]1O", "note": "(stereo partly shown) [maltotriose]", "values": [{"measurement": "kcat", "setting": "[1]; maltotriose", "result": 65, "unit": "s⁻¹"}, {"measurement": "Km", "setting": "[1]; read-out: Km for maltotriose", "result": 450, "unit": "µM"}, {"measurement": "kcat", "setting": "[2]; maltotriose", "result": 61.67, "unit": "s⁻¹"}, {"measurement": "Km", "setting": "[2]; read-out: Km for maltotriose", "result": 730, "unit": "µM"}, {"measurement": "kcat", "setting": "[3]; maltotriose", "result": 20, "unit": "s⁻¹"}, {"measurement": "Km", "setting": "[3]; read-out: Km for maltotriose", "result": 500, "unit": "µM"}, {"measurement": "Km", "setting": "[4]; at pH 4 from 4° C. to 80° C.", "result": "< 1000", "unit": "µM"}, {"measurement": "kcat", "setting": "[4]; at pH 4 from 40° C. to 70° C.", "result": "> 10^5 /min"}, {"measurement": "kcat", "setting": "[4]; from pH 3 to 7 at 20° C.", "result": "> 10^5 /min"}, {"measurement": "Km", "setting": "[4]; from pH 3 to 11 at 20° C.", "result": "< 1000", "unit": "µM"}]}]}
